Columns and labels:
[1] = Tmax in CD-1 mouse brain at 0.1 mg/kg, iv administered as bolus dose in presence of ENT1 inhibitor NBMPR-P; assay type: ADME, organism-based; parameters: dose 0.1 mg/kg, route intravenous
[2] = Tmax in CD-1 mouse brain at 0.1 mg/kg, iv administered as bolus dose in absence of ENT1 inhibitor NBMPR-P; assay type: ADME, organism-based; parameters: dose 0.1 mg/kg, route intravenous
[3] = target: T1, Equilibrative nucleoside transporter 1 (Homo sapiens, UniProt Q99808); assay: Binding affinity to recombinant human ENT1 expressed in Saccharomyces cerevisiae assessed as inhibition of [3H]-uridine transport after 15 mins by scintillation counting analysis; assay type: ADME
T1 sequence (Q99808 whole entry): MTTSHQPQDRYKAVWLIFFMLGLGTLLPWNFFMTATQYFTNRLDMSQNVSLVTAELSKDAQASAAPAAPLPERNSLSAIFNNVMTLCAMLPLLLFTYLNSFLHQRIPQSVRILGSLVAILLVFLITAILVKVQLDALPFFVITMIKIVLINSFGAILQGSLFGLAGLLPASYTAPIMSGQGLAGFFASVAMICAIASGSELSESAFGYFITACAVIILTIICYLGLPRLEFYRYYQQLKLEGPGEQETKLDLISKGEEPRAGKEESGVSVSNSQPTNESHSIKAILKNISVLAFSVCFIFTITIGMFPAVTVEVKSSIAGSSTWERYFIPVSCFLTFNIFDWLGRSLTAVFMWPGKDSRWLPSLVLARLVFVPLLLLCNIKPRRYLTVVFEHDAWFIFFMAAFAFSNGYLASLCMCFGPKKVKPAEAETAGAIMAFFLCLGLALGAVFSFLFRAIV

[4] = target: T2, Equilibrative nucleoside transporter 2 (Homo sapiens, UniProt Q14542); assay: Binding affinity to recombinant human ENT2 expressed in Saccharomyces cerevisiae assessed as inhibition of [3H]-uridine transport after 15 mins by scintillation counting analysis; assay type: ADME
T2 sequence (Q14542 whole entry): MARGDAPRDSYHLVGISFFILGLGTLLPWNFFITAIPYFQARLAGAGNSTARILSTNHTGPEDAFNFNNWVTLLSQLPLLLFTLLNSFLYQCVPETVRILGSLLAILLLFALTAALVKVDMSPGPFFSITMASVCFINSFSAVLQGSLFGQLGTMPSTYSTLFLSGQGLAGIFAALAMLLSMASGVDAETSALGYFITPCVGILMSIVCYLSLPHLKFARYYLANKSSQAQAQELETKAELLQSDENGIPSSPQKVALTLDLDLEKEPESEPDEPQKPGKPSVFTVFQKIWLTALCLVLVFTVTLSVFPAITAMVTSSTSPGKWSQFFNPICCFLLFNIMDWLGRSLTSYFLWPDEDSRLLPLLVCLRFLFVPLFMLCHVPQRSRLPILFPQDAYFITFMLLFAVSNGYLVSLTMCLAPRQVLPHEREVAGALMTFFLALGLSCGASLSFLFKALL

[5] = target: T3, Sodium/nucleoside cotransporter 1 (Homo sapiens, UniProt O00337); assay: Binding affinity to recombinant human CNT1 expressed in Saccharomyces cerevisiae assessed as inhibition of [3H]-uridine transport after 15 mins by scintillation counting analysis; assay type: ADME
T3 sequence (O00337 whole entry): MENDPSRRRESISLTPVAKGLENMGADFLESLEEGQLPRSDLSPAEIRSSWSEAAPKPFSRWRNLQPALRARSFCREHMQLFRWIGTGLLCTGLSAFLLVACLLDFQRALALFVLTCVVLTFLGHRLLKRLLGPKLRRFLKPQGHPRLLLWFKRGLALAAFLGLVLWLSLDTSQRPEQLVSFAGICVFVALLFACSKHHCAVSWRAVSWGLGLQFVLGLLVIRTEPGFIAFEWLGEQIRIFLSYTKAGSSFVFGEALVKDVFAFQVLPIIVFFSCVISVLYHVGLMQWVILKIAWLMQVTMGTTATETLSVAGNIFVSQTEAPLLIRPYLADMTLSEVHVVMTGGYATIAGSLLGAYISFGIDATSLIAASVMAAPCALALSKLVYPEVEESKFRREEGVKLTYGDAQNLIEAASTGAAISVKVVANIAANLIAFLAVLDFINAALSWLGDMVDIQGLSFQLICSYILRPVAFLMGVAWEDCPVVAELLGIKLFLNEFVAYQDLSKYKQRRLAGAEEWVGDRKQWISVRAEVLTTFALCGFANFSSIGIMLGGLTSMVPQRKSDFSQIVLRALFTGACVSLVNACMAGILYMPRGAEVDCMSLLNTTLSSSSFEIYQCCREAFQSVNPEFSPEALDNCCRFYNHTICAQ

[6] = target: T4, Sodium/nucleoside cotransporter 2 (Homo sapiens, UniProt O43868); assay: Binding affinity to recombinant human CNT2 expressed in Saccharomyces cerevisiae assessed as inhibition of [3H]-uridine transport after 15 mins by scintillation counting analysis; assay type: ADME
T4 sequence (O43868 whole entry): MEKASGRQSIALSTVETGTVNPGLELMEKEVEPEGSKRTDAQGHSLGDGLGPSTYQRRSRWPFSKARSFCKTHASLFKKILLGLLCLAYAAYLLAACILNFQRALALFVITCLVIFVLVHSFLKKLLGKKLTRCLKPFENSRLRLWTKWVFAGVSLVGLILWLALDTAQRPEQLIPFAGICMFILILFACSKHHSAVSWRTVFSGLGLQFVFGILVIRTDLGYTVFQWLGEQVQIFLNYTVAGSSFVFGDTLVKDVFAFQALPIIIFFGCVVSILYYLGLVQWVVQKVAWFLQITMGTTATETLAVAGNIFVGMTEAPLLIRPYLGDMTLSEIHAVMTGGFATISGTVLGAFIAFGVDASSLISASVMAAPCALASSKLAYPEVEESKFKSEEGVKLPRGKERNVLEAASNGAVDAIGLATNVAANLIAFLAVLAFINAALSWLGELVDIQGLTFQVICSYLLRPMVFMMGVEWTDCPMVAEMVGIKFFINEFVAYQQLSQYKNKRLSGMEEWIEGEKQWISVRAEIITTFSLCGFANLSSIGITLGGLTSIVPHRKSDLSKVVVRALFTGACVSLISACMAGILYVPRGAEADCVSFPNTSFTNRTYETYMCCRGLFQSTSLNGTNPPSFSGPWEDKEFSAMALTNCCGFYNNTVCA

[7] = target: T5, Solute carrier family 28 member 3 (Homo sapiens, UniProt Q9HAS3); assay: Binding affinity to recombinant human CNT3 expressed in Saccharomyces cerevisiae assessed as inhibition of [3H]-uridine transport after 5 mins by scintillation counting analysis; assay type: ADME
T5 sequence (Q9HAS3 whole entry): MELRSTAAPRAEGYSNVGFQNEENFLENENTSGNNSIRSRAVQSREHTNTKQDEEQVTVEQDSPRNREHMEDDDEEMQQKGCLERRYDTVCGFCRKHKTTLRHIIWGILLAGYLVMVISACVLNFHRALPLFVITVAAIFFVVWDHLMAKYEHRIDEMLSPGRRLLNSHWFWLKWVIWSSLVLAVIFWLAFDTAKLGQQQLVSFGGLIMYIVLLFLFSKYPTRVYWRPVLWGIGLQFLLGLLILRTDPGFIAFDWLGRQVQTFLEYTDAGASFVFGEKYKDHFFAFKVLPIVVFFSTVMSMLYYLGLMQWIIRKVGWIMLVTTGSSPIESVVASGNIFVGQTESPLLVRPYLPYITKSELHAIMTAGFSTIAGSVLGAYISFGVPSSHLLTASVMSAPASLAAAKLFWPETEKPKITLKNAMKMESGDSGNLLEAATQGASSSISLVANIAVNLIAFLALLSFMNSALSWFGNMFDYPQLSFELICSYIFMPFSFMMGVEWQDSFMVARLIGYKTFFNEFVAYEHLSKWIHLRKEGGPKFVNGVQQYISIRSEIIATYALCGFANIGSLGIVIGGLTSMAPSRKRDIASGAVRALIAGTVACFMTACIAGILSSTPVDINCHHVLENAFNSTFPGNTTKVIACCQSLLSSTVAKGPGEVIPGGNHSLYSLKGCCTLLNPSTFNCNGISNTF

[8] = target: T1, Equilibrative nucleoside transporter 1; assay: Drug transport in human CCRF-CEM cells assessed as ENT1-mediated uptake measured per 10^6 cells after 5 secs by Michaelis-Menten equation analysis; assay type: ADME, cell-based; conditions: 5 s
Xenopus laevis = organism: Xenopus laevis; assay: Drug uptake in water-injected Xenopus laevis oocytes up to 1 mM measured per 2 mins; assay type: ADME, organism-based; conditions: in vivo
[9] = target: T1, Equilibrative nucleoside transporter 1; assay: Drug transport in Xenopus laevis oocytes assessed as recombinant human ENT1-mediated uptake up to 1 mM measured per 2 mins by Michaelis-Menten equation analysis; assay type: ADME, cell-based
[10] = Cmax in CD-1 mouse brain at 0.1 mg/kg, iv administered as bolus dose in absence of ENT1 inhibitor NBMPR-P; assay type: ADME, organism-based; parameters: dose 0.1 mg/kg, route intravenous
[11] = Cmax in CD-1 mouse brain at 0.1 mg/kg, iv administered as bolus dose in presence of ENT1 inhibitor NBMPR-P; assay type: ADME, organism-based; parameters: dose 0.1 mg/kg, route intravenous
Brain [12] = assay: AUC (0 to 4 hrs) in CD-1 mouse brain at 0.1 mg/kg, iv administered as bolus dose in absence of ENT1 inhibitor NBMPR-P; assay type: ADME, organism-based; parameters: time < 4 hr, dose 0.1 mg/kg, route intravenous; conditions: in vivo
Brain [13] = assay: AUC (0 to 4 hrs) in CD-1 mouse brain at 0.1 mg/kg, iv administered as bolus dose in presence of ENT1 inhibitor NBMPR-P; assay type: ADME, organism-based; parameters: time < 4 hr, dose 0.1 mg/kg, route intravenous; conditions: in vivo
[14] = Apparent volume of distribution at steady state in CD-1 mouse at 0.1 mg/kg, iv administered as bolus dose in absence of ENT1 inhibitor NBMPR-P; assay type: ADME, organism-based; parameters: dose 0.1 mg/kg, route intravenous; conditions: in vivo, read-out: Vdss(app)
[15] = Apparent volume of distribution at steady state in CD-1 mouse at 0.1 mg/kg, iv administered as bolus dose in presence of ENT1 inhibitor NBMPR-P; assay type: ADME, organism-based; parameters: dose 0.1 mg/kg, route intravenous; conditions: in vivo, read-out: Vdss(app)
[16] = Elimination half life in CD-1 mouse at 0.1 mg/kg, iv administered as bolus dose in absence of ENT1 inhibitor NBMPR-P; assay type: ADME, organism-based; parameters: dose 0.1 mg/kg, route intravenous; conditions: in vivo, read-out: beta t1/2 (converted)
[17] = Elimination half life in CD-1 mouse at 0.1 mg/kg, iv administered as bolus dose in presence of ENT1 inhibitor NBMPR-P; assay type: ADME, organism-based; parameters: dose 0.1 mg/kg, route intravenous; conditions: in vivo, read-out: beta t1/2 (converted)
[18] = AUC (0 to infinity) in CD-1 mouse at 0.1 mg/kg, iv administered as bolus dose in absence of ENT1 inhibitor NBMPR-P; assay type: ADME, organism-based; parameters: time infinity, dose 0.1 mg/kg, route intravenous; conditions: plasma
[19] = AUC (0 to infinity) in CD-1 mouse at 0.1 mg/kg, iv administered as bolus dose in presence of ENT1 inhibitor NBMPR-P; assay type: ADME, organism-based; parameters: time infinity, dose 0.1 mg/kg, route intravenous; conditions: plasma
[20] = target: T6, ENT1 (equilibrative nucleoside transporter 1) (Homo sapiens, UniProt Q99808); assay: Drug transport in Xenopus laevis oocytes assessed as recombinant human ENT1-mediated uptake up to 1 mM by Michaelis-Menten equation analysis; assay type: ADME, cell-based; conditions: Xenopus laevis oocytes expressing recombinant human ENT1, read-out: Km(app)
T6 sequence (Q99808 whole entry): T1 sequence (Q99808 whole entry)

[21] = target: T6, ENT1 (equilibrative nucleoside transporter 1); assay: Drug transport in human CCRF-CEM cells assessed as ENT1-mediated uptake after 5 secs by Michaelis-Menten equation analysis; assay type: ADME, cell-based

Structure (SMILES): OC[C@H]1O[C@@H](n2cnc3c(N[C@@H]4CCOC4)ncnc32)[C@H](O)[C@@H]1O [TECADENOSON]
- Tmax [1]: 11.4 min
- Tmax [2]: 6.6 min
- IC50 [3]: 12 µM
- Ki ([3]; read-out: Ki(app)): 11 µM
- IC50 [4]: 190 µM
- Ki ([4]; read-out: Ki(app)): 189 µM
- IC50 [5]: 41 µM
- Ki ([5]; read-out: Ki(app)): 37 µM
- IC50 [6]: 239 µM
- Ki ([6]; read-out: Ki(app)): 231 µM
- IC50 [7]: 200 µM
- Ki ([7]; read-out: Ki(app)): 126 µM
- Vmax [8]: 3.4 pmol
- Drug uptake (Xenopus laevis): 5 pmol
- Vmax [9]: 46.7 pmol
- Cmax [10]: 23 ng/g
- Cmax [11]: 4 ng/g
- AUC (Brain [12]): 22 ng·h/g
- AUC (Brain [13]): 7 ng·h/g
- Vd [14]: 2.8 L/kg
- Vd [15]: 2.2 L/kg
- half-life [16]: 42 min
- half-life [17]: 66 min
- AUC(0-inf) [18]: 16.4 ng·h/mL
- AUC(0-inf) [19]: 50.5 ng·h/mL
- Km [20]: 196 µM
- Km at 5 s [21]: 24 µM

From ChEMBL document CHEMBL3526052 (Drug Metab Dispos, 2013)
